Experimental data taken from PubChem BioAssay (NCI).
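48-hour exposure; five concentrations; linearly interpolated endpoints. GI50 marks 50% less growth. The concentration for full growth arrest is given as TGI.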

Tests used:
Experiment in all cases: DTP human tumour cell line panel, 48 h
786-0 renal = test system: 786-0 renal
A498 renal = test system: A498 renal
A549 NSCLC = test system: A549 NSCLC
ACHN renal = test system: ACHN renal
BT-549 breast = test system: BT-549 breast
CAKI-1 renal = test system: CAKI-1 renal
CCRF-CEM leukemia = test system: CCRF-CEM leukemia
COLO 205 colon = test system: COLO 205 colon
DU-145 prostate = test system: DU-145 prostate
EKVX NSCLC = test system: EKVX NSCLC
HCC-2998 colon = test system: HCC-2998 colon
HCT-116 colon = test system: HCT-116 colon
HCT-15 colon = test system: HCT-15 colon
HL-60(TB) leukemia = test system: HL-60(TB) leukemia
HOP-62 NSCLC = test system: HOP-62 NSCLC
HOP-92 NSCLC = test system: HOP-92 NSCLC
HS 578T breast = test system: HS 578T breast
HT29 colon = test system: HT29 colon
IGROV1 ovarian = test system: IGROV1 ovarian
K-562 leukemia = test system: K-562 leukemia
KM12 colon = test system: KM12 colon
LOX IMVI melanoma = test system: LOX IMVI melanoma
M14 melanoma = test system: M14 melanoma
MALME-3M melanoma = test system: MALME-3M melanoma
MCF7 breast = test system: MCF7 breast
MDA-MB-231 breast = test system: MDA-MB-231 breast
MDA-MB-435 = test system: MDA-MB-435
MDA-MB-468 breast = test system: MDA-MB-468 breast
MOLT-4 leukemia = test system: MOLT-4 leukemia
NCI-H226 lung = test system: NCI-H226 lung
NCI-H23 lung = test system: NCI-H23 lung
NCI-H460 lung = test system: NCI-H460 lung
NCI-H522 lung = test system: NCI-H522 lung
NCI/ADR-RES ovarian = test system: NCI/ADR-RES ovarian
OVCAR-3 ovarian = test system: OVCAR-3 ovarian
OVCAR-4 ovarian = test system: OVCAR-4 ovarian
OVCAR-5 ovarian = test system: OVCAR-5 ovarian
OVCAR-8 ovarian = test system: OVCAR-8 ovarian
PC-3 prostate = test system: PC-3 prostate
RPMI-8226 leukemia = test system: RPMI-8226 leukemia
RXF 393 renal = test system: RXF 393 renal
SF-268 CNS = test system: SF-268 CNS
SF-295 CNS = test system: SF-295 CNS
SF-539 CNS = test system: SF-539 CNS
SK-MEL-2 melanoma = test system: SK-MEL-2 melanoma
SK-MEL-28 melanoma = test system: SK-MEL-28 melanoma
SK-MEL-5 melanoma = test system: SK-MEL-5 melanoma
SK-OV-3 ovarian = test system: SK-OV-3 ovarian
SN12C renal = test system: SN12C renal
SNB-19 CNS = test system: SNB-19 CNS
SNB-75 CNS = test system: SNB-75 CNS
SW-620 colon = test system: SW-620 colon
T-47D breast = test system: T-47D breast
TK-10 renal = test system: TK-10 renal
U251 CNS = test system: U251 CNS
UACC-257 melanoma = test system: UACC-257 melanoma
UACC-62 melanoma = test system: UACC-62 melanoma
UO-31 renal = test system: UO-31 renal
SR leukemia = test system: SR leukemia

## COC(=O)C[C@](O)(CCCC(C)(C)O)C(=O)O[C@H]1C(OC)=C[C@@]23CCCN2CCc2cc4c(cc2[C@@H]13)OCO4
786-0 renal
  GI50: 1.45 µM
  TGI: 9.56 µM
A498 renal
  GI50: 0.665 µM
  TGI: 3.66 µM
A549 NSCLC
  GI50: 0.999 µM
  TGI: 8.72 µM
ACHN renal
  GI50: 1.77 µM
  TGI: 16.2 µM
BT-549 breast
  GI50: 0.823 µM
  TGI: 2.38 µM
CAKI-1 renal
  GI50: 3 µM
  TGI: 29.7 µM
CCRF-CEM leukemia
  GI50: 0.856 µM
  TGI: 3.02 µM
COLO 205 colon
  GI50: 1.7 µM
  TGI: 6.87 µM
DU-145 prostate
  GI50: 1.12 µM
  TGI: 13.4 µM
EKVX NSCLC
  GI50: 1.67 µM
  TGI: 16.8 µM
HCC-2998 colon
  GI50: 0.545 µM
  TGI: 1.59 µM
HCT-116 colon
  GI50: 0.717 µM
  TGI: 3.01 µM
HCT-15 colon
  GI50: 4.65 µM
  TGI: 21.7 µM
HL-60(TB) leukemia
  GI50: 0.456 µM
  TGI: 1.74 µM
HOP-62 NSCLC
  GI50: 1.5 µM
  TGI: 16.2 µM
HOP-92 NSCLC
  GI50: 1.15 µM
  TGI: 11.7 µM
HS 578T breast
  TGI: 9.75 µM
HT29 colon
  GI50: 0.953 µM
  TGI: 6.45 µM
IGROV1 ovarian
  GI50: 1.32 µM
  TGI: 11.4 µM
K-562 leukemia
  GI50: 0.972 µM
  TGI: > 38.3 µM
KM12 colon
  GI50: 1.28 µM
  TGI: 17.5 µM
LOX IMVI melanoma
  GI50: 0.481 µM
  TGI: 1.56 µM
M14 melanoma
  GI50: 0.744 µM
  TGI: 1.88 µM
MALME-3M melanoma
  GI50: 0.691 µM
  TGI: 2.11 µM
MCF7 breast
  GI50: 0.524 µM
  TGI: 2.11 µM
MDA-MB-231 breast
  GI50: 2.24 µM
  TGI: 12.8 µM
MDA-MB-435
  GI50: 1.25 µM
  TGI: 6.78 µM
MDA-MB-468 breast
  GI50: 0.613 µM
  TGI: 2.08 µM
MOLT-4 leukemia
  GI50: 0.255 µM
  TGI: 2.29 µM
NCI-H226 lung
  GI50: 0.781 µM
  TGI: 3.56 µM
NCI-H23 lung
  GI50: 0.996 µM
  TGI: 3.31 µM
NCI-H460 lung
  GI50: 0.21 µM
  TGI: 2.62 µM
NCI-H522 lung
  GI50: 0.858 µM
  TGI: 2.32 µM
NCI/ADR-RES ovarian
  GI50: > 38.3 µM
  TGI: > 38.3 µM
OVCAR-3 ovarian
  GI50: 1.01 µM
  TGI: 4.14 µM
OVCAR-4 ovarian
  GI50: 1.22 µM
  TGI: 10.3 µM
OVCAR-5 ovarian
  GI50: 1.55 µM
  TGI: 11.1 µM
OVCAR-8 ovarian
  GI50: 1.42 µM
  TGI: 11.9 µM
PC-3 prostate
  GI50: 1.14 µM
  TGI: 9.36 µM
RPMI-8226 leukemia
  GI50: 0.93 µM
  TGI: 2.36 µM
RXF 393 renal
  GI50: 0.447 µM
  TGI: 1.47 µM
SF-268 CNS
  GI50: 2.9 µM
  TGI: 19.5 µM
SF-295 CNS
  GI50: 1.34 µM
  TGI: 11.8 µM
SF-539 CNS
  GI50: 0.673 µM
  TGI: 1.78 µM
SK-MEL-2 melanoma
  GI50: 3.23 µM
  TGI: 12.8 µM
SK-MEL-28 melanoma
  GI50: 0.992 µM
  TGI: 4.26 µM
SK-MEL-5 melanoma
  GI50: 0.614 µM
  TGI: 1.47 µM
SK-OV-3 ovarian
  GI50: 1.35 µM
  TGI: 26.4 µM
SN12C renal
  GI50: 1.61 µM
  TGI: 19.6 µM
SNB-19 CNS
  GI50: 0.757 µM
  TGI: 3.06 µM
SNB-75 CNS
  GI50: 0.982 µM
  TGI: 8.37 µM
SW-620 colon
  GI50: 1.15 µM
  TGI: > 38.3 µM
T-47D breast
  GI50: 1.2 µM
  TGI: 18.5 µM
TK-10 renal
  GI50: 3.03 µM
  TGI: 35.7 µM
U251 CNS
  GI50: 1 µM
  TGI: 4.81 µM
UACC-257 melanoma
  GI50: 1.22 µM
  TGI: 8.48 µM
UACC-62 melanoma
  GI50: 1.41 µM
  TGI: 10.6 µM
UO-31 renal
  GI50: 4.55 µM
  TGI: 29.8 µM

## O=C1Nc2cc(-c3ccc(NS(=O)(=O)c4ccc(F)c(Cl)c4)cc3)ccc2/C1=C/c1ccc[nH]1
786-0 renal
  GI50: 5.54 µM
  TGI: 27 µM
A498 renal
  GI50: 1.93 µM
  TGI: 15.5 µM
A549 NSCLC
  GI50: 2.35 µM
  TGI: 16.8 µM
ACHN renal
  GI50: 3.52 µM
  TGI: 14.6 µM
BT-549 breast
  GI50: 4 µM
  TGI: 26.3 µM
CAKI-1 renal
  GI50: 4.63 µM
  TGI: 18.6 µM
CCRF-CEM leukemia
  GI50: 3.28 µM
  TGI: 18.9 µM
COLO 205 colon
  GI50: 5.07 µM
  TGI: 18.9 µM
DU-145 prostate
  GI50: 3.74 µM
  TGI: 15.2 µM
EKVX NSCLC
  GI50: 0.0918 µM
  TGI: 15.9 µM
HCC-2998 colon
  GI50: 3.23 µM
  TGI: 20.4 µM
HCT-116 colon
  GI50: 3.57 µM
  TGI: 33.3 µM
HCT-15 colon
  GI50: 3.46 µM
  TGI: 17.6 µM
HL-60(TB) leukemia
  GI50: 3.34 µM
  TGI: 30.4 µM
HOP-62 NSCLC
  GI50: 10.3 µM
  TGI: 26.3 µM
HOP-92 NSCLC
  GI50: 4.68 µM
  TGI: 20.3 µM
HS 578T breast
  GI50: 2.96 µM
  TGI: 19.2 µM
HT29 colon
  GI50: 3.31 µM
  TGI: 17.8 µM
IGROV1 ovarian
  GI50: 11.4 µM
  TGI: 39.9 µM
K-562 leukemia
  GI50: 3.79 µM
  TGI: > 100 µM
KM12 colon
  GI50: 2.13 µM
  TGI: 7.6 µM
LOX IMVI melanoma
  GI50: 3.78 µM
  TGI: 16.2 µM
M14 melanoma
  GI50: 5.58 µM
  TGI: 27.2 µM
MALME-3M melanoma
  GI50: 10.5 µM
  TGI: 23.2 µM
MDA-MB-231 breast
  GI50: 4.86 µM
  TGI: 21.3 µM
MDA-MB-435
  GI50: 6.52 µM
  TGI: 25.8 µM
MOLT-4 leukemia
  GI50: 2.33 µM
  TGI: 16.1 µM
NCI-H226 lung
  GI50: 3.86 µM
  TGI: 26.1 µM
NCI-H23 lung
  GI50: 0.533 µM
  TGI: 8.49 µM
NCI-H460 lung
  GI50: 0.393 µM
  TGI: 1.98 µM
NCI-H522 lung
  GI50: 4.19 µM
  TGI: 22.4 µM
NCI/ADR-RES ovarian
  GI50: 7.98 µM
  TGI: 29.9 µM
OVCAR-3 ovarian
  GI50: 2.86 µM
  TGI: 17.1 µM
OVCAR-4 ovarian
  GI50: 2 µM
  TGI: 18.8 µM
OVCAR-5 ovarian
  GI50: 3.53 µM
  TGI: 19.4 µM
OVCAR-8 ovarian
  GI50: 12.3 µM
  TGI: 32.1 µM
PC-3 prostate
  GI50: 3.11 µM
  TGI: 18 µM
RPMI-8226 leukemia
  GI50: 2.6 µM
  TGI: 21.9 µM
RXF 393 renal
  GI50: 3.12 µM
  TGI: 16.6 µM
SF-268 CNS
  GI50: 8.27 µM
  TGI: 29.2 µM
SF-295 CNS
  GI50: 4.68 µM
  TGI: 23.2 µM
SF-539 CNS
  GI50: 2.67 µM
  TGI: 14.9 µM
SK-MEL-2 melanoma
  GI50: 18.2 µM
  TGI: > 100 µM
SK-MEL-28 melanoma
  GI50: 6.91 µM
  TGI: 29.2 µM
SK-MEL-5 melanoma
  GI50: 11.3 µM
  TGI: 35.3 µM
SK-OV-3 ovarian
  GI50: 4.07 µM
  TGI: 29.7 µM
SN12C renal
  GI50: 11.8 µM
  TGI: 31 µM
SNB-19 CNS
  GI50: 13.7 µM
  TGI: 35.5 µM
SNB-75 CNS
  GI50: 0.95 µM
  TGI: 14.4 µM
SR leukemia
  GI50: 2.2 µM
  TGI: 17.6 µM
SW-620 colon
  GI50: 3.46 µM
  TGI: 17 µM
TK-10 renal
  GI50: 5.8 µM
  TGI: 25.8 µM
U251 CNS
  GI50: 11.5 µM
  TGI: 26.1 µM
UACC-257 melanoma
  GI50: 3.96 µM
  TGI: 21.3 µM
UACC-62 melanoma
  GI50: 4.9 µM
  TGI: 27.9 µM
UO-31 renal
  GI50: 3.22 µM
  TGI: 21 µM
